In ChEMBL document CHEMBL1201862, “PubChem BioAssay data set” (2004):
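Interpolation was linear, between the two tested concentrations surrounding the appropriate level; five concentrations were tested over 48 hours in 96-well plates. GI50: concentration for 50% inhibition of growth.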 Activity calls are given as the source filed them. Cut-off read from the data, not from the text of the source: active = GI50 up to about 1.1 µM and inactive = higher.

Experiments:
Test in all cases: NCI tumour cell line growth inhibition, 48 h
MOLT-4 = test system: MOLT-4
LOX IMVI = test system: LOX IMVI
SNB-75 = test system: SNB-75
T47D = test system: T47D
MDA-MB-435 = test system: MDA-MB-435
SK-MEL-2 = test system: SK-MEL-2
Malme-3M = test system: Malme-3M
HOP-92 = test system: HOP-92
COLO 205 = test system: COLO 205
RXF 393 = test system: RXF 393
SN12C = test system: SN12C
Hs-578T = test system: Hs-578T
CAKI-1 = test system: CAKI-1
EKVX = test system: EKVX
SK-OV-3 = test system: SK-OV-3
SK-MEL-5 = test system: SK-MEL-5
SF-268 = test system: SF-268
MCF7 = test system: MCF7
KM12 = test system: KM12
HCT-15 = test system: HCT-15

| Structure (SMILES) | GI50 (MOLT-4) | GI50 (LOX IMVI) | GI50 (SNB-75) | GI50 (T47D) | GI50 (MDA-MB-435) | GI50 (SK-MEL-2) | GI50 (Malme-3M) | GI50 (HOP-92) | GI50 (COLO 205) | GI50 (RXF 393) | GI50 (SN12C) | GI50 (Hs-578T) | GI50 (CAKI-1) | GI50 (EKVX) | GI50 (SK-OV-3) | GI50 (SK-MEL-5) | GI50 (SF-268) | GI50 (MCF7) | GI50 (KM12) | GI50 (HCT-15) |
| --- | --- | --- | --- | --- | --- | --- | --- | --- | --- | --- | --- | --- | --- | --- | --- | --- | --- | --- | --- | --- |
| Cc1ccc2c(/C=C/c3ccc(N(C)C)cc3)ccc(C(C)C)cc1-2 | > 100 µM (inactive) | > 100 µM (inactive) | > 100 µM (inactive) | 36.9 µM (inactive) | > 100 µM (inactive) | > 100 µM (inactive) | > 100 µM (inactive) | 76.4 µM (inactive) | > 100 µM (inactive) | > 100 µM (inactive) | > 100 µM (inactive) | > 100 µM (inactive) | > 100 µM (inactive) | 94.2 µM (inactive) | > 100 µM (inactive) | 22 µM (inactive) | > 100 µM (inactive) | > 100 µM (inactive) | > 100 µM (inactive) |  |
| C[C@@H]1CCC2[C@@H](C)C(=O)O[C@@H]3C4C[C@@H]1[C@@]23OO[C@@]4(C)O (stereo partly specified) | 72.1 µM (inactive) | 23.1 µM (inactive) | 75.5 µM (inactive) | 87.3 µM (inactive) | 72.6 µM (inactive) | > 100 µM (inactive) | > 100 µM (inactive) | > 100 µM (inactive) | > 100 µM (inactive) | 60.3 µM (inactive) | > 100 µM (inactive) | > 100 µM (inactive) | > 100 µM (inactive) | 57.7 µM (inactive) |  | 2.81 µM (inactive) | 76 µM (inactive) | 62.8 µM (inactive) | > 100 µM (inactive) | > 100 µM |
| CC1=NN(c2ccccc2Cl)C2(C1)SCC(=O)N2c1nc2ccccc2s1 (stereo unspecified) |  | > 100 µM (inactive) | > 100 µM (inactive) | > 100 µM (inactive) | > 100 µM (inactive) | > 100 µM (inactive) | > 100 µM (inactive) | > 100 µM (inactive) | > 100 µM (inactive) | > 100 µM (inactive) | > 100 µM (inactive) | > 100 µM (inactive) | > 100 µM (inactive) | > 100 µM (inactive) | > 100 µM (inactive) | > 100 µM (inactive) | > 100 µM (inactive) | > 100 µM (inactive) | > 100 µM (inactive) | > 100 µM |
| CC(=O)O[C@H]1C[C@]2(C)C(CCC3O[C@@]32C)[C@@]2(CC(c3ccoc3)OC2O)[C@@H]1C (stereo partly specified) | 29.6 µM (inactive) | 78.3 µM (inactive) | > 100 µM (inactive) | 39.3 µM (inactive) | 86.7 µM (inactive) | > 100 µM (inactive) |  | > 100 µM (inactive) | > 100 µM (inactive) | > 100 µM (inactive) | > 100 µM (inactive) | > 100 µM (inactive) | > 100 µM (inactive) | > 100 µM (inactive) | > 100 µM (inactive) | 50 µM (inactive) | > 100 µM (inactive) | 44.3 µM (inactive) | 78.3 µM (inactive) | 37.8 µM |
| c1ccc(C(Oc2noc3ccccc23)c2ccccc2)cc1 | 14.8 µM (inactive) | 38.7 µM (inactive) | 12.6 µM (inactive) | 3.64 µM (inactive) | 20.3 µM (inactive) |  | 67.5 µM (inactive) | 35.6 µM (inactive) | 16.9 µM (inactive) | 14.9 µM (inactive) | 35.7 µM (inactive) | 66.4 µM (inactive) | 62.2 µM (inactive) | 40.9 µM (inactive) | 57 µM (inactive) | 18.7 µM (inactive) | 65.8 µM (inactive) | 37.3 µM (inactive) | 29.1 µM (inactive) | 31.3 µM |
| O=S(=O)(O)c1ccc2c(/N=N\c3cccc4ccccc34)c(O)c(S(=O)(=O)O)cc2c1 | > 100 µM (inactive) | > 100 µM (inactive) | > 100 µM (inactive) | > 100 µM (inactive) | > 100 µM (inactive) | > 100 µM (inactive) | > 61.7 µM (inactive) | > 100 µM (inactive) | > 100 µM (inactive) | > 100 µM (inactive) |  | > 100 µM (inactive) | > 100 µM (inactive) | > 100 µM (inactive) | > 100 µM (inactive) | > 100 µM (inactive) | > 100 µM (inactive) | > 100 µM (inactive) | > 100 µM (inactive) | > 100 µM |
| CC(=O)OC1C[C@@H](C)C2(CC(c3ccoc3)OC2=O)C2CCC(O)C3(CO3)C12CO (stereo partly specified) | > 100 µM (inactive) | > 100 µM (inactive) | > 100 µM (inactive) | > 100 µM (inactive) | > 100 µM (inactive) | > 100 µM (inactive) | > 100 µM (inactive) | > 100 µM (inactive) | > 100 µM (inactive) | > 100 µM (inactive) | > 100 µM (inactive) | > 100 µM (inactive) | > 100 µM (inactive) |  |  | > 100 µM (inactive) | > 100 µM (inactive) | > 100 µM (inactive) | > 100 µM (inactive) | > 100 µM |
| CCCOc1ccc(/C=C/C2=[N+](CCO)CCO2)cc1 | > 100 µM (inactive) |  | > 100 µM (inactive) | > 100 µM (inactive) | > 100 µM (inactive) | > 100 µM (inactive) | > 100 µM (inactive) | > 100 µM (inactive) | > 100 µM (inactive) | > 100 µM (inactive) | > 100 µM (inactive) | > 100 µM (inactive) | > 100 µM (inactive) | > 100 µM (inactive) | > 100 µM (inactive) | > 100 µM (inactive) | > 100 µM (inactive) | > 100 µM (inactive) | > 100 µM (inactive) | > 100 µM |
